# Measurements published in ChEMBL document CHEMBL6096697, “Structure-Guided Discovery of Novel N4-(Substituted Thiazol-2-yl)-N2-(4-Substituted phenyl)pyrimidine-2,4-Diamines as Potent CDK2 and CDK9 Dual Inhibitors with High Oral Bioavailability” (J Med Chem, 2025).
# Biological target: Cyclin-dependent kinase 2/cyclin A (Homo sapiens) (UniProt P24941+P20248+P78396)
# Test: Inhibition of CDK2/cyclin A (unknown origin) using […] at 1 uM incubated for 40 mins in presence of ATP by Kinase-Glo assay relative to control
# Format: protein-complex assay
# Settings: not given
row,SMILES,inhibition [%]
1,COc1cc(Nc2nccc(Nc3nccs3)n2)cc(OC)c1OC,30
2,CCOC(=O)c1sc(Nc2nc(Nc3ccc(S(N)(=O)=O)cc3)ncc2C)nc1C,81
3,Brc1ccc(Nc2nccc(Nc3nccs3)n2)cc1,17
4,COC(=O)c1sc(Nc2nc(Nc3ccc(S(N)(=O)=O)cc3)ncc2OC)nc1C,44
5,Cc1cnc(Nc2ccc(S(=O)(=O)N3CCOCC3)cc2)nc1Nc1nccs1,79
6,CNS(=O)(=O)c1ccc(Nc2ncc(C)c(Nc3nccs3)n2)cc1,85
7,COC(=O)c1sc(Nc2ccnc(Nc3ccc(S(N)(=O)=O)cc3)n2)nc1C,67
8,COc1ccc(Nc2nccc(Nc3ncco3)n2)cc1,60
9,c1ccc(Nc2nccc(Nc3nccs3)n2)cc1,61
10,CCOC(=O)c1cnc(Nc2nc(Nc3ccc(S(N)(=O)=O)cc3)ncc2OC)s1,36
11,Fc1ccc(Nc2nccc(Nc3nccs3)n2)cc1,9
12,Cc1cnc(Nc2ccc(S(=O)(=O)NC3CC3)cc2)nc1Nc1nccs1,76
13,COc1ccc(Nc2nccc(Nc3cc[nH]n3)n2)cc1,47

# The remaining lines, values ahead:
row,inhibition [%],SMILES
1,79,CCOC(=O)c1cnc(Nc2nc(Nc3ccc(S(N)(=O)=O)cc3)ncc2F)s1
2,78,Cc1cnc(Nc2nc(Nc3ccc(S(N)(=O)=O)cc3)ncc2C)s1
3,59,CC(C)c1ccc(-c2csc(Nc3ccnc(Nc4ccc(S(N)(=O)=O)cc4)n3)n2)cc1
4,65,CC(C)c1ccc(-c2csc(Nc3nc(Nc4ccc(S(N)(=O)=O)cc4)ncc3F)n2)cc1
5,72,COc1cnc(Nc2ccc(S(N)(=O)=O)cc2)nc1Nc1ncc(C)s1
6,85,Cc1csc(Nc2ccnc(Nc3ccc(S(N)(=O)=O)cc3)n2)n1
7,84,Cc1cnc(Nc2ccc(S(N)(=O)=O)cc2)nc1Nc1nc(-c2ccc(C(C)C)cc2)cs1
8,81,Cc1cnc(Nc2ccc(S(=O)(=O)NC(C)C)cc2)nc1Nc1nccs1
9,82,CCOC(=O)c1cnc(Nc2nc(Nc3ccc(S(N)(=O)=O)cc3)ncc2C)s1

# Biological target: CDK9/cyclin T1 (Homo sapiens) (UniProt O60563+P50750)
# Test: Inhibition of CDK9/cyclin T (unknown origin) using […] at 1 uM incubated for 40 mins in presence of ATP by Kinase-Glo assay relative to control
# Format: protein-complex assay
# Settings: not given
row,SMILES,inhibition [%]
1,COc1cc(Nc2nccc(Nc3nccs3)n2)cc(OC)c1OC,49
2,CCOC(=O)c1sc(Nc2nc(Nc3ccc(S(N)(=O)=O)cc3)ncc2C)nc1C,83
3,Brc1ccc(Nc2nccc(Nc3nccs3)n2)cc1,15
4,COC(=O)c1sc(Nc2nc(Nc3ccc(S(N)(=O)=O)cc3)ncc2OC)nc1C,19
5,Cc1cnc(Nc2ccc(S(=O)(=O)N3CCOCC3)cc2)nc1Nc1nccs1,7
6,CNS(=O)(=O)c1ccc(Nc2ncc(C)c(Nc3nccs3)n2)cc1,19
7,COC(=O)c1sc(Nc2ccnc(Nc3ccc(S(N)(=O)=O)cc3)n2)nc1C,31
8,COc1ccc(Nc2nccc(Nc3ncco3)n2)cc1,21
9,c1ccc(Nc2nccc(Nc3nccs3)n2)cc1,18
10,CCOC(=O)c1cnc(Nc2nc(Nc3ccc(S(N)(=O)=O)cc3)ncc2OC)s1,32
11,Fc1ccc(Nc2nccc(Nc3nccs3)n2)cc1,6
12,Cc1cnc(Nc2ccc(S(=O)(=O)NC3CC3)cc2)nc1Nc1nccs1,62
13,COc1ccc(Nc2nccc(Nc3cc[nH]n3)n2)cc1,29

# Further lines, results first:
row,inhibition [%],SMILES
1,66,Cc1cnc(Nc2nc(Nc3ccc(S(N)(=O)=O)cc3)ncc2F)s1
2,40,CCOC(=O)c1cnc(Nc2nc(Nc3ccc(S(N)(=O)=O)cc3)ncc2F)s1
3,63,CC(C)c1ccc(-c2csc(Nc3ccnc(Nc4ccc(S(N)(=O)=O)cc4)n3)n2)cc1
4,27,CC(C)c1ccc(-c2csc(Nc3nc(Nc4ccc(S(N)(=O)=O)cc4)ncc3F)n2)cc1
5,75,COc1cnc(Nc2ccc(S(N)(=O)=O)cc2)nc1Nc1ncc(C)s1
6,76,Cc1csc(Nc2ccnc(Nc3ccc(S(N)(=O)=O)cc3)n2)n1
7,83,Cc1cnc(Nc2ccc(S(N)(=O)=O)cc2)nc1Nc1nc(-c2ccc(C(C)C)cc2)cs1
8,31,Cc1cnc(Nc2ccc(S(=O)(=O)NC(C)C)cc2)nc1Nc1nccs1
9,79,CCOC(=O)c1cnc(Nc2nc(Nc3ccc(S(N)(=O)=O)cc3)ncc2C)s1

# Biological target: Cyclin-dependent kinase 2/cyclin A (Homo sapiens, UniProt P24941)
# Test: Inhibition of CDK2/cyclin A (unknown origin) using […] incubated for 40 mins in presence of ATP by Kinase-Glo assay
# Format: protein-complex assay
# Settings: not given
row,SMILES,IC50 [µM]
1,Cc1cnc(Nc2nc(Nc3ccc(S(N)(=O)=O)cc3)ncc2F)s1,0.012

# Biological target: not listed separately
# Test: Inhibition of CDK9/cyclin T (unknown origin) using […] incubated for 40 mins in presence of ATP by Kinase-Glo assay
# Set-up: species or system Homo sapiens
# Settings: not given
row,SMILES,IC50 [µM]
1,Cc1cnc(Nc2nc(Nc3ccc(S(N)(=O)=O)cc3)ncc2C)s1,0.002

# Tested on: HCT-116
# Test: Cytotoxicity against human HCT-116 cells assessed as cell growth inhibition incubated for 48 hrs by MTT assay
# Format: functional, cell-based
# Settings: HCT-116, 48 h
row,SMILES,IC50 [µM]
1,COc1cc(Nc2nccc(Nc3nccs3)n2)cc(OC)c1OC,> 10
2,Cc1cnc(Nc2nc(Nc3ccc(S(N)(=O)=O)cc3)ncc2F)s1,0.91
3,CCOC(=O)c1sc(Nc2nc(Nc3ccc(S(N)(=O)=O)cc3)ncc2C)nc1C,> 10
4,CCOC(=O)c1cnc(Nc2nc(Nc3ccc(S(N)(=O)=O)cc3)ncc2F)s1,7.5
5,Brc1ccc(Nc2nccc(Nc3nccs3)n2)cc1,6.84
6,Cc1cnc(Nc2nc(Nc3ccc(S(N)(=O)=O)cc3)ncc2C)s1,0.692
7,CC(C)c1ccc(-c2csc(Nc3ccnc(Nc4ccc(S(N)(=O)=O)cc4)n3)n2)cc1,6.43
8,CC(C)c1ccc(-c2csc(Nc3nc(Nc4ccc(S(N)(=O)=O)cc4)ncc3F)n2)cc1,> 10
9,COc1cnc(Nc2ccc(S(N)(=O)=O)cc2)nc1Nc1ncc(C)s1,9.76
10,COC(=O)c1sc(Nc2nc(Nc3ccc(S(N)(=O)=O)cc3)ncc2OC)nc1C,> 10
11,Cc1csc(Nc2ccnc(Nc3ccc(S(N)(=O)=O)cc3)n2)n1,> 10
12,Cc1cnc(Nc2ccc(S(=O)(=O)N3CCOCC3)cc2)nc1Nc1nccs1,> 10
13,CNS(=O)(=O)c1ccc(Nc2ncc(C)c(Nc3nccs3)n2)cc1,> 10
14,Cc1cnc(Nc2ccc(S(N)(=O)=O)cc2)nc1Nc1nc(-c2ccc(C(C)C)cc2)cs1,3.06
15,COC(=O)c1sc(Nc2ccnc(Nc3ccc(S(N)(=O)=O)cc3)n2)nc1C,8.72
16,Cc1cnc(Nc2ccc(S(=O)(=O)NC(C)C)cc2)nc1Nc1nccs1,> 10
17,COc1ccc(Nc2nccc(Nc3ncco3)n2)cc1,> 10
18,c1ccc(Nc2nccc(Nc3nccs3)n2)cc1,> 10
19,CCOC(=O)c1cnc(Nc2nc(Nc3ccc(S(N)(=O)=O)cc3)ncc2C)s1,4.58
20,CCOC(=O)c1cnc(Nc2nc(Nc3ccc(S(N)(=O)=O)cc3)ncc2OC)s1,> 10
21,Fc1ccc(Nc2nccc(Nc3nccs3)n2)cc1,> 10
22,Cc1cnc(Nc2ccc(S(=O)(=O)NC3CC3)cc2)nc1Nc1nccs1,9.62
23,COc1ccc(Nc2nccc(Nc3cc[nH]n3)n2)cc1,> 10
